Laboratory results as given in the NIST ThermoML archive (doi:10.1016/j.jct.2010.08.019).

Assay: refractive index (Na D-line) (dimensionless); xn = mol fraction of the nth substance listed
Details: 101 kPa, Liquid, Standard Abbe refractometry

CC(C)CC(C)(C)C [2,2,4-trimethylpentane] + CC(C)O
Details	refractive index
293.15 K, x2 = 0.2501	1.41104
293.15 K, x2 = 0.3003	1.40906
293.15 K, x2 = 0.3502	1.40701
293.15 K, x2 = 0.4004	1.40497
293.15 K, x2 = 0.4502	1.4029
293.15 K, x2 = 0.5001	1.40079
293.15 K, x2 = 0.55	1.39865
293.15 K, x2 = 0.5998	1.39647
293.15 K, x2 = 0.6502	1.39422
293.15 K, x2 = 0.7002	1.39194
293.15 K, x2 = 0.7499	1.38965
293.15 K, x2 = 0.7999	1.38727
293.15 K, x2 = 0.85	1.38486
293.15 K, x2 = 0.8999	1.38241
293.15 K, x2 = 0.95	1.37993
303.15 K, x2 = 0	1.41599
303.15 K, x2 = 0.05	1.41398
303.15 K, x2 = 0.1	1.41198
303.15 K, x2 = 0.1499	1.41
303.15 K, x2 = 0.2004	1.408
303.15 K, x2 = 0.2497	1.40602
303.15 K, x2 = 0.3	1.40405
303.15 K, x2 = 0.3499	1.40202
303.15 K, x2 = 0.4008	1.40001
303.15 K, x2 = 0.4503	1.39797
303.15 K, x2 = 0.5	1.3959
303.15 K, x2 = 0.5498	1.3938
303.15 K, x2 = 0.6001	1.39166
303.15 K, x2 = 0.65	1.38947
303.15 K, x2 = 0.7001	1.38724
303.15 K, x2 = 0.7495	1.38498
303.15 K, x2 = 0.7989	1.38267
303.15 K, x2 = 0.8499	1.3803
303.15 K, x2 = 0.8997	1.37788
303.15 K, x2 = 0.95	1.37545
313.15 K, x2 = 0	1.41092
313.15 K, x2 = 0.0499	1.40889
313.15 K, x2 = 0.1001	1.40693
313.15 K, x2 = 0.1503	1.40494
313.15 K, x2 = 0.2001	1.40299
313.15 K, x2 = 0.2499	1.40102
313.15 K, x2 = 0.3003	1.39906
313.15 K, x2 = 0.3497	1.39707
313.15 K, x2 = 0.4	1.39507
313.15 K, x2 = 0.4502	1.39301
313.15 K, x2 = 0.5005	1.39098
313.15 K, x2 = 0.5499	1.38891
313.15 K, x2 = 0.6	1.38681
313.15 K, x2 = 0.6498	1.38469
313.15 K, x2 = 0.6999	1.38251
313.15 K, x2 = 0.75	1.38031
313.15 K, x2 = 0.7998	1.37808
313.15 K, x2 = 0.8498	1.37578
313.15 K, x2 = 0.8999	1.37345
313.15 K, x2 = 0.9499	1.37107
323.15 K, x2 = 0	1.40554
323.15 K, x2 = 0.0501	1.40351
323.15 K, x2 = 0.1	1.40154
323.15 K, x2 = 0.15	1.39952
323.15 K, x2 = 0.1998	1.39757
323.15 K, x2 = 0.25	1.39566
323.15 K, x2 = 0.3	1.39368
323.15 K, x2 = 0.35	1.39173
323.15 K, x2 = 0.4	1.38974
323.15 K, x2 = 0.4499	1.38775
323.15 K, x2 = 0.5	1.38572
323.15 K, x2 = 0.5501	1.38366
323.15 K, x2 = 0.6	1.38161
323.15 K, x2 = 0.65	1.37953
323.15 K, x2 = 0.7	1.37741
323.15 K, x2 = 0.7499	1.37522
323.15 K, x2 = 0.7999	1.37303
323.15 K, x2 = 0.85	1.3708
323.15 K, x2 = 0.9	1.36851
323.15 K, x2 = 0.95	1.36617

C1CCOCC1 [tetrahydropyran] + CC(C)CC(C)(C)C
Details	refractive index
293.15 K, x1 = 0.0502	1.39259
293.15 K, x1 = 0.1	1.39359
293.15 K, x1 = 0.1499	1.39461
293.15 K, x1 = 0.2	1.39567
293.15 K, x1 = 0.25	1.39677
293.15 K, x1 = 0.3	1.39792
293.15 K, x1 = 0.35	1.39911
293.15 K, x1 = 0.4	1.40036
293.15 K, x1 = 0.4498	1.40167
293.15 K, x1 = 0.5001	1.40303
293.15 K, x1 = 0.5501	1.40446
293.15 K, x1 = 0.5999	1.40595
293.15 K, x1 = 0.6501	1.40753
293.15 K, x1 = 0.6999	1.40917
293.15 K, x1 = 0.75	1.41092
293.15 K, x1 = 0.8	1.41274
293.15 K, x1 = 0.8501	1.41468
293.15 K, x1 = 0.9	1.4167
293.15 K, x1 = 0.95	1.41885
293.15 K, x1 = 1	1.42109
303.15 K, x1 = 0.0502	1.38756
303.15 K, x1 = 0.1	1.38853
303.15 K, x1 = 0.1499	1.38953
303.15 K, x1 = 0.2	1.39057
303.15 K, x1 = 0.25	1.39166
303.15 K, x1 = 0.2999	1.39279
303.15 K, x1 = 0.3498	1.39399
303.15 K, x1 = 0.3998	1.39524
303.15 K, x1 = 0.4498	1.39654
303.15 K, x1 = 0.5001	1.3979
303.15 K, x1 = 0.5501	1.39932
303.15 K, x1 = 0.5999	1.40081
303.15 K, x1 = 0.6501	1.40239
303.15 K, x1 = 0.6999	1.40403
303.15 K, x1 = 0.75	1.40577
303.15 K, x1 = 0.8	1.4076
303.15 K, x1 = 0.8501	1.40954
303.15 K, x1 = 0.9	1.41158
303.15 K, x1 = 0.95	1.41373
303.15 K, x1 = 1	1.41599
313.15 K, x1 = 0.0501	1.38237
313.15 K, x1 = 0.1002	1.38334
313.15 K, x1 = 0.1501	1.38433
313.15 K, x1 = 0.1999	1.38537
313.15 K, x1 = 0.2501	1.38645
313.15 K, x1 = 0.3	1.38759
313.15 K, x1 = 0.3499	1.38877
313.15 K, x1 = 0.4002	1.39001
313.15 K, x1 = 0.4502	1.39131
313.15 K, x1 = 0.4999	1.39266
313.15 K, x1 = 0.5499	1.39409
313.15 K, x1 = 0.6	1.39559
313.15 K, x1 = 0.65	1.39716
313.15 K, x1 = 0.6998	1.39881
313.15 K, x1 = 0.75	1.40055
313.15 K, x1 = 0.8001	1.40239
313.15 K, x1 = 0.8501	1.40432
313.15 K, x1 = 0.9001	1.40638
313.15 K, x1 = 0.9498	1.40857
313.15 K, x1 = 1	1.41092
323.15 K, x1 = 0.0501	1.37719
323.15 K, x1 = 0.1002	1.37814
323.15 K, x1 = 0.1501	1.37913
323.15 K, x1 = 0.1999	1.38015
323.15 K, x1 = 0.2501	1.38122
323.15 K, x1 = 0.3	1.38233
323.15 K, x1 = 0.3499	1.38349
323.15 K, x1 = 0.4002	1.38471
323.15 K, x1 = 0.45	1.38599
323.15 K, x1 = 0.5002	1.38733
323.15 K, x1 = 0.55	1.38874
323.15 K, x1 = 0.5997	1.39022
323.15 K, x1 = 0.65	1.39179
323.15 K, x1 = 0.6998	1.39343
323.15 K, x1 = 0.75	1.39518
323.15 K, x1 = 0.8001	1.39701
323.15 K, x1 = 0.8501	1.39895
323.15 K, x1 = 0.9002	1.40101
323.15 K, x1 = 0.95	1.40319
323.15 K, x1 = 1	1.40554

C1CCOCC1 [tetrahydropyran] + CC(C)O
Details	refractive index
293.15 K, x2 = 0	1.39161
293.15 K, x2 = 0.0501	1.39085
293.15 K, x2 = 0.0999	1.3902
293.15 K, x2 = 0.1499	1.38954
293.15 K, x2 = 0.2003	1.38897
293.15 K, x2 = 0.2506	1.38839
293.15 K, x2 = 0.2999	1.38777
293.15 K, x2 = 0.35	1.38719
293.15 K, x2 = 0.3999	1.3866
293.15 K, x2 = 0.4499	1.38599
293.15 K, x2 = 0.5001	1.38539
293.15 K, x2 = 0.5502	1.38478
293.15 K, x2 = 0.6001	1.38415
293.15 K, x2 = 0.6499	1.38347
293.15 K, x2 = 0.7001	1.3827
293.15 K, x2 = 0.7499	1.38194
293.15 K, x2 = 0.8	1.38113
293.15 K, x2 = 0.8501	1.38021
293.15 K, x2 = 0.9001	1.37932
293.15 K, x2 = 0.9499	1.37832
303.15 K, x2 = 0	1.3866
303.15 K, x2 = 0.0502	1.38571
303.15 K, x2 = 0.1001	1.38505
303.15 K, x2 = 0.1501	1.38441
303.15 K, x2 = 0.1998	1.38377
303.15 K, x2 = 0.2499	1.3832
303.15 K, x2 = 0.3	1.38259
303.15 K, x2 = 0.3499	1.38201
303.15 K, x2 = 0.4001	1.38144
303.15 K, x2 = 0.4501	1.38087
303.15 K, x2 = 0.5001	1.38026
303.15 K, x2 = 0.55	1.37965
303.15 K, x2 = 0.6	1.37903
303.15 K, x2 = 0.65	1.37841
303.15 K, x2 = 0.6999	1.37775
303.15 K, x2 = 0.7499	1.37704
303.15 K, x2 = 0.8001	1.37633
303.15 K, x2 = 0.85	1.37553
303.15 K, x2 = 0.8998	1.37469
303.15 K, x2 = 0.9499	1.3738
313.15 K, x2 = 0	1.38143
313.15 K, x2 = 0.05	1.38065
313.15 K, x2 = 0.1	1.37995
313.15 K, x2 = 0.1501	1.37929
313.15 K, x2 = 0.2	1.37868
313.15 K, x2 = 0.2499	1.37807
313.15 K, x2 = 0.2997	1.37748
313.15 K, x2 = 0.3499	1.37692
313.15 K, x2 = 0.4	1.37632
313.15 K, x2 = 0.4504	1.37573
313.15 K, x2 = 0.5001	1.37513
313.15 K, x2 = 0.55	1.37457
313.15 K, x2 = 0.5999	1.37399
313.15 K, x2 = 0.65	1.37339
313.15 K, x2 = 0.7001	1.3728
313.15 K, x2 = 0.7502	1.37216
313.15 K, x2 = 0.7999	1.37151
313.15 K, x2 = 0.85	1.37081
313.15 K, x2 = 0.8998	1.37005
313.15 K, x2 = 0.9498	1.36931
323.15 K, x2 = 0	1.37627
323.15 K, x2 = 0.05	1.3752
323.15 K, x2 = 0.1	1.37442
323.15 K, x2 = 0.1501	1.37378
323.15 K, x2 = 0.2	1.37312
323.15 K, x2 = 0.2499	1.37252
323.15 K, x2 = 0.2997	1.37192
323.15 K, x2 = 0.3499	1.37127
323.15 K, x2 = 0.4	1.37072
323.15 K, x2 = 0.4504	1.37012
323.15 K, x2 = 0.5001	1.3695
323.15 K, x2 = 0.5501	1.36901
323.15 K, x2 = 0.6	1.36843
323.15 K, x2 = 0.65	1.36789
323.15 K, x2 = 0.6999	1.36729
323.15 K, x2 = 0.7502	1.36664
323.15 K, x2 = 0.8002	1.36608
323.15 K, x2 = 0.8501	1.36542
323.15 K, x2 = 0.8998	1.36485
323.15 K, x2 = 0.9501	1.3642
